# From paper PMC4226674, “A phase I trial of the HIV protease inhibitor nelfinavir in adults with solid tumors” (Oncotarget, 2014)
# Values joined by “and” are separate entries in the source; they are usually repeats but may differ in a detail not shown here. Equal entries are not always repeated.
# Assays:
# [1] = Protocol: This single institution, open-label, Phase Ia dose escalation study was performed to establish the MTD and DLT of nelfinavir in subjects with advanced refractory solid tumors. The study used a modified Fibonacci scheme, in which cohorts of three to six subjects were entered at each dose level until two patients developed DLT. If two or more subjects encountered DLT, then the MTD was exceeded. The MTD was defined as the dose level at which less than 2 of 6 subjects experienced DLT. Each cycle lasted 21 days. Up to 6 additional patients were allowed to be enrolled at the MTD in order to better establish potential rates of toxicity.
# Physical examinations, toxicity assessments and laboratory analyses were conducted weekly during cycle 1 and then every three weeks beginning cycle 2.
# The starting dose of nelfinavir was the FDA-approved dose in HIV patients of 1250 mg twice daily, which comprised dose level (DL) 1. Dose escalation proceeded in 625 mg, twice-daily increments (DL2: 1875 mg, DL3: 2500 mg, DL4: 3125 mg, DL5: 3750 mg, DL6: 4375 mg).
# Toxicity was graded according to the National Cancer Institute Common Toxicity Criteria, version 3.0.
# P-AKT S473 = assay: Akt activation in PBMCs by immunoblotting; assay type: in vivo, human
# Protocol: Blood was collected in Vacutainer CPT collection tubes with sodium heparin (BD Biosciences cat# 362753) and mononuclear cells were isolated as per the manufacturer's instructions. PBMCs were washed with PBS and lysed in 2X LSB buffer, aliquotted and stored at -80°C. For analysis, equal amounts of protein per sample were run on 10-12% SDS-PAGE gels, then transferred onto nitrocellulose membranes. Membranes were blocked in 5% milk in TBS + 0.1% tween (TBST) and incubated with primary antibody diluted in 5% BSA in TBST at 4 degrees overnight. The next day membranes were washed, incubated with HRP-linked secondary antibody and developed using ECL chemiluminescent reagent (GE Healthcare) and X-ray film as per the manufacturers instructions. […] Antibodies to CHOP sc-7351 and ATF3 sc-188 were from Santa Cruz Biotechnology (Santa Cruz, CA).
# [2] = test system: advanced refractory solid tumors; assay: Tumor response by RECIST and duration of therapy
# Protocol: Physical examinations, toxicity assessments and laboratory analyses were conducted weekly during cycle 1 and then every three weeks beginning cycle 2. An electrocardiogram was performed every cycle, and restaging scans were performed at baseline and every two cycles thereafter. Subjects remained on study until disease progression (as determined by RECIST), severe toxicity, or individual choice.
# Tumor response was assessed according to Response Evaluation Criteria in Solid Tumors (RECIST) [34] every two cycles.
smiles,measurement,setting,value
"Cc1c(O)cccc1C(=O)N[C@@H](CSc1ccccc1)[C@H](O)CN1C[C@H]2CCCC[C@H]2C[C@H]1C(=O)NC(C)(C)C [nelfinavir, Nelfinavir]",MTD relative to FDA-approved dose for HIV (fold/times),[1]; 3125 mg bid vs doses typically used in HIV patients,2.5
same,onset of nelfinavir-induced neutropenia,"[1]; human, in vivo",≤ 3 days
same,recovery of neutropenia after discontinuation of drug,"[1]; human, in vivo",≤ 3 days
same,"ALT increase, treatment-related AE in cycle 1","[1]; human, in vivo, 21 days",5 (20.8) N (%)
same,"Abdominal pain, treatment-related AE in cycle 1","[1]; human, in vivo, 21 days",1 (4.2) N (%)
same,"Anemia, treatment-related AE in cycle 1","[1]; human, in vivo, 21 days",10 (41.7) N (%)
same,"Anorexia, treatment-related AE in cycle 1","[1]; human, in vivo, 21 days",1 (4.2) N (%)
same,"Belching, treatment-related AE in cycle 1","[1]; human, in vivo, 21 days",1 (4.2) N (%)
same,"Bloating/, treatment-related AE in cycle 1","[1]; human, in vivo, 21 days",3 (12.5) N (%)
same,"Cholesterol increase, treatment-related AE in cycle 1","[1]; human, in vivo, 21 days",3 (12.5) N (%)
same,"Dehydration, treatment-related AE in cycle 1","[1]; human, in vivo, 21 days",2 (8.3) N (%)
same,"Depression, treatment-related AE in cycle 1","[1]; human, in vivo, 21 days",1 (4.2) N (%)
same,"Diarrhea, treatment-related AE in cycle 1","[1]; human, in vivo, 21 days",12 (50.0) N (%)
same,"Fatigue, treatment-related AE in cycle 1","[1]; human, in vivo, 21 days",5 (20.8) N (%)
same,"Flatulence, treatment-related AE in cycle 1","[1]; human, in vivo, 21 days",1 (4.2) N (%)
same,"Heartburn, treatment-related AE in cycle 1","[1]; human, in vivo, 21 days",1 (4.2) N (%)
same,"Hyperglycemia, treatment-related AE in cycle 1","[1]; human, in vivo, 21 days",4 (16.7) N (%)
same,"Hyperkalemia, treatment-related AE in cycle 1","[1]; human, in vivo, 21 days",3 (12.5) N (%)
same,"Hypoalbuminemia, treatment-related AE in cycle 1","[1]; human, in vivo, 21 days",5 (20.8) N (%)
same,"Hypokalemia, treatment-related AE in cycle 1","[1]; human, in vivo, 21 days",1 (4.2) N (%)
same,"Hyponatremia, treatment-related AE in cycle 1","[1]; human, in vivo, 21 days",2 (8.3) N (%)
same,"Hypophosphatemia, treatment-related AE in cycle 1","[1]; human, in vivo, 21 days",1 (4.2) N (%)
same,"Hypothyroid, treatment-related AE in cycle 1","[1]; human, in vivo, 21 days",1 (4.2) N (%)
same,"Insomnia, treatment-related AE in cycle 1","[1]; human, in vivo, 21 days",1 (4.2) N (%)
same,"Leukopenia, treatment-related AE in cycle 1","[1]; human, in vivo, 21 days",4 (16.7) N (%)
same,"Lymphopenia, treatment-related AE in cycle 1","[1]; human, in vivo, 21 days",10 (41.7) N (%)
same,"Nausea, treatment-related AE in cycle 1","[1]; human, in vivo, 21 days",2 (8.3) N (%)
same,"Neutropenia, treatment-related AE in cycle 1","[1]; human, in vivo, 21 days",5 (20.8) N (%)
same,"Palpitations, treatment-related AE in cycle 1","[1]; human, in vivo, 21 days",1 (4.2) N (%)
same,"Thrombocytopenia, treatment-related AE in cycle 1","[1]; human, in vivo, 21 days",2 (8.3) N (%)
same,"anemia, treatment-related AE in cycle 1","[1]; human, in vivo, 21 days",41.7%
same,"diarrhea, treatment-related AE in cycle 1","[1]; human, in vivo, 21 days",50%
same,"fatigue, treatment-related AE in cycle 1","[1]; human, in vivo, 21 days",20.8%
same,"hypoalbuminemia, treatment-related AE in cycle 1","[1]; human, in vivo, 21 days",20.8%
same,"lymphopenia, treatment-related AE in cycle 1","[1]; human, in vivo, 21 days",41.7%
same,dose limiting toxicity (DLT),"[1]; human, in vivo, po",grade 4 neutropenia
same,cumulative toxicities,[1]; in vivo,No cumulative toxicities were observed
same,maximum tolerated dose (MTD),"[1]; oral, twice daily, 21-day cycles, advanced solid tumors",3125 mg
same,subject PBMCs showing a decrease in P-AKT S473,"P-AKT S473; DL4 (3125 mg bid), after 7 or 42 days",45%
same,effect on AKT in peripheral blood mononuclear cells,P-AKT S473; in vivo,inhibited AKT
same,"time on study, two of the subjects with NET of the midgut",[2]; 3125 mg BID,at least 8 months
same,subjects remaining on study for 8 months or more,"[2]; 3125 mg BID MTD, progressed prior to study entry (four subjects)",36%
same,ORR (confirmed partial response) at the MTD,"[2]; 3125 mg bid expansion cohort, 11 evaluable subjects",9% and 9.1%
same,ORR in the overall population,"[2]; 21 evaluable subjects, all dose levels",4.8%
same,minor responses in subjects with neuroendocrine tumors,"[2]; NET of the midgut or pancreatic origin, MTD",two
same,subjects with stable disease for more than 6 months,[2]; expansion cohort at the MTD,Thirty-six
same,"levels of circulating chromogranin, synaptophysin, and/or urinary 5-HIAA",[2]; responders with NET and carcinoid syndrome,transient decreases
same,time to improvement of carcinoid syndrome symptoms (flushing and diarrhea),[2]; responders with NET that had carcinoid syndrome,≤ 7 days
same,Duration of therapy,"[2]; subject 1, SCLC, 1250 mg BID",1.4 mos.
same,Duration of therapy,"[2]; subject 3, SCLC, 1250 mg BID",1.4 mos.
same,Duration of therapy,"[2]; subject 4, SCLC, 1250 mg BID",1.4 mos.
same,Duration of therapy,"[2]; subject 5, Anaplastic Thyroid, 1875 mg BID",1.4 mos.
same,Duration of therapy,"[2]; subject 7, Differentiated Thyroid, 1875 mg BID",2.8 mos.
same,Duration of therapy,"[2]; subject 8, NSCLC, 1875 mg BID",3.5 mos.
same,Duration of therapy,"[2]; subject 9, Colorectal, 2500 mg BID",1.4 mos.
same,Duration of therapy,"[2]; subject 10, Pancreatic Adenocarcinoma, 2500 mg BID",2.8 mos.
same,Duration of therapy,"[2]; subject 11, NSCLC, 2500 mg BID",4.1 mos.
same,Duration of therapy,"[2]; subject 12, Differentiated thyroid, 3125 mg BID",2.1 mos.
same,Duration of therapy,"[2]; subject 14, Renal Cell Cancer, 3125 mg BID",1.4 mos.
same,Duration of therapy,"[2]; subject 17, Adenoid Cystic, 3125 mg BID",11 mos. and 11.0 mos.
same,Duration of therapy,"[2]; subject 18, Neuroendocrine tumor, 3125 mg BID",8.3 mos.
same,Duration of therapy,"[2]; subject 19, Colorectal, 3125 mg BID",4.1 mos.
same,Duration of therapy,"[2]; subject 21, Adenoid Cystic, 3750 mg BID",1.4 mos.
same,Duration of therapy,"[2]; subject 23, Prostate, 3125 mg BID",1.0 mos.
same,Duration of therapy,"[2]; subject 24, SCLC, 3125 mg BID",2.8 mos.
same,Duration of therapy,"[2]; subject 25, Colorectal, 3125 mg BID",2.8 mos.
same,Duration of therapy,"[2]; subject 26, Neuroendocrine tumor, 3125 mg BID",12.4 mos.
same,Duration of therapy,"[2]; subject 27, Neuroendocrine tumor, 3125 mg BID",3.5 mos.
same,Duration of therapy,"[2]; subject 28, Neuroendocrine tumor (midgut, carcinoid syndrome), 3125 mg BID",23.5 mos.
same,additional time on nelfinavir off study with stable disease,"[2]; subject that achieved a PR, NET of the midgut",six
